Measured values published in PubChem BioAssay (NCI).
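Grown in 96-well plates, cells were treated for 48 hours with each compound at five concentrations. Insufficient inhibition: endpoint recorded as highest concentration tested. GI50: concentration for 50% inhibition of growth. TGI: total growth inhibition.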

Key:
Assay in all cases: NCI anticancer screen, dose series, 48 h
MCF7 breast = tested on: MCF7 breast
CCRF-CEM leukemia = tested on: CCRF-CEM leukemia
SF-295 CNS = tested on: SF-295 CNS
HT29 colon = tested on: HT29 colon
M14 melanoma = tested on: M14 melanoma
MOLT-4 leukemia = tested on: MOLT-4 leukemia
SK-OV-3 ovarian = tested on: SK-OV-3 ovarian
SF-539 CNS = tested on: SF-539 CNS
TK-10 renal = tested on: TK-10 renal
OVCAR-3 ovarian = tested on: OVCAR-3 ovarian

Compound | GI50 (MCF7 breast) [µM] | TGI (MCF7 breast) [µM] | GI50 (CCRF-CEM leukemia) [µM] | TGI (CCRF-CEM leukemia) [µM] | GI50 (SF-295 CNS) [µM] | TGI (SF-295 CNS) [µM] | GI50 (HT29 colon) [µM] | TGI (HT29 colon) [µM] | GI50 (M14 melanoma) [µM] | TGI (M14 melanoma) [µM] | GI50 (MOLT-4 leukemia) [µM] | TGI (MOLT-4 leukemia) [µM] | GI50 (SK-OV-3 ovarian) [µM] | TGI (SK-OV-3 ovarian) [µM] | GI50 (SF-539 CNS) [µM] | TGI (SF-539 CNS) [µM] | GI50 (TK-10 renal) [µM] | TGI (TK-10 renal) [µM] | GI50 (OVCAR-3 ovarian) [µM] | TGI (OVCAR-3 ovarian) [µM]
O=C1/C(=C/c2ccc(F)cc2)COc2ccc(O)c(O)c21 | 1.02 | > 100 | 0.313 | 1.46 | 8.09 | > 100 | 3.37 | > 100 | 3.21 | 19.2 | 1.37 | > 100 | 4.45 | > 100 | 1.28 | 2.7 | 4.74 | > 100 | 0.864 | 9.4
O=CNC(Cc1cnc[nH]1)C(=O)O (stereo unspecified) | – | > 100 | – | > 100 | – | > 100 | – | > 100 | – | > 100 | – | – | – | > 100 | – | > 100 | – | > 100 | – | > 100
O=[N+]([O-])c1ccccc1/C=N\NC(=S)N/N=C/c1ccccc1[N+](=O)[O-] | 3.12 | > 100 | 4.19 | > 100 | 1.87 | 7.41 | 4.04 | > 100 | 3.76 | > 100 | 6.47 | > 100 | 6.07 | > 100 | 4.17 | 58.6 | 13.7 | > 100 | 1.95 | 4.72
COc1ccc(/C=C\c2cc(OC)c(OC)c(OC)c2)cc1NC(=O)/C=C/c1ccc(OC)c(OC)c1 | 3.22 | > 100 | 4.19 | > 100 | – | – | 3.39 | > 100 | 4.3 | > 100 | 6.66 | > 100 | 0.0736 | 0.676 | 3.1 | 52.6 | > 100 | > 100 | 6.41 | > 100
O=[N+]([O-])c1ccc(Sc2cccc[n+]2[O-])c2nonc12 | 1.77 | 10.8 | 1.42 | – | 3.37 | 43.7 | 3.4 | 29.4 | 4.32 | 16.4 | – | – | 30 | > 100 | 19.3 | 54.3 | 8.41 | 20.8 | 1.07 | 2.48
CNc1c2ccccc2nc2occ(Cl)c12 | 32.3 | > 100 | 27.1 | 84.5 | 20.6 | 88.2 | – | – | 37.2 | > 100 | 13.3 | 64.6 | 36.8 | > 100 | – | – | 17.9 | 56.7 | 24 | 75.2
CN1CCN(C2=C(Cl)C(=O)c3ccccc3C2=O)CC1 | 1.45 | 3.16 | 2.45 | 7.96 | 4.8 | 15.9 | 1.94 | 3.7 | 1.78 | 3.23 | 2.2 | 8.26 | 9.11 | 22.4 | 2.08 | 4.47 | 1.71 | 3.29 | 1.39 | 2.69
COc1ccc(Cn2cc3c(c2-c2ccccc2)CCc2cnoc2-3)cc1 | 0.0391 | > 100 | 0.251 | > 100 | 0.0652 | > 100 | 0.0797 | 1.58 | 0.155 | > 100 | 0.361 | 4.38 | 0.226 | > 100 | 0.149 | 0.49 | > 34.5 | > 100 | 0.137 | 0.509
CC(NCCN(C)C)C1CCC2C3CCc4cc(O)ccc4C3CCC12C (stereo unspecified) | – | 11.5 | – | 3.47 | – | 6.72 | – | 8.45 | – | 3.09 | – | 5.19 | – | 15.9 | – | 9.52 | – | 6.63 | – | 4.37
CCN(Cc1ccc(Cl)c(Cl)c1)c1ccc2nc(N)nc(N)c2c1C | 0.0189 | 1.52 | 0.0252 | 6.3 | < 0.01 | – | < 0.01 | 1.27 | < 0.01 | 1.63 | – | – | 0.172 | 2.22 | 0.0695 | 1.48 | 0.0753 | 1.91 | – | –
O=C(O)/C=C/c1c2ccc(=O)c(O)c-2oc2c(O)c(O)ccc12 | – | 34.8 | – | 23.2 | – | 55 | – | > 100 | – | > 100 | – | 49.2 | – | > 100 | – | – | – | > 100 | – | > 100
COC(=O)NC1(NC(=O)OC)NC(=O)c2ccccc2N1 | – | > 100 | – | > 100 | – | > 100 | – | > 100 | – | > 100 | – | > 100 | – | > 100 | – | > 100 | – | > 100 | – | > 100
Nc1n[n+]([O-])c2ccc(Cl)cc2[n+]1[O-] | – | > 100 | – | > 100 | – | > 100 | – | 77 | – | 40.4 | – | > 100 | – | 52.9 | – | 58.7 | – | > 100 | – | –
N[C@H]1CCC[C@@H](O)C1O (stereo partly specified) | – | > 100 | – | > 100 | – | > 100 | – | > 100 | – | > 100 | > 100 | > 100 | – | > 100 | – | > 100 | – | – | – | > 100
COC(=O)CNC(=O)C(=O)c1c(O)c(O)c(C(C)C)c2cc(C)c(-c3c(C)cc4c(C(C)C)c(O)c(O)c(C(=O)C(=O)NCC(=O)OC)c4c3O)c(O)c12 | 1.64 | 6.11 | 2.14 | > 50 | 1.46 | 6.89 | 1.58 | 5.36 | 2.09 | 9.9 | 1.36 | 16 | 1.79 | 6.89 | 1.77 | 7.84 | – | – | 1.61 | 6.34
